Results published in patent US7279548B2, “Identification and isolation of novel polypeptides having WW domains and methods of using same” (Cytogen Corporation, priority 1996, dated 2007).
No end group written: not given here. *: point of attachment. Biotin = O=C1N[C@H]2[C@H](CS[C@H]2CCCCC(=O)*)N1

Experiments:
[1] = test system: WW domains of WWP1 expressed as GST fusion proteins; test: ELISA based cross affinity mapping, WW domains of WWP1; type: binding, human; conditions: biotinylated peptide-streptavidin/alkaline phosphatase complex; GST fusion proteins; ELISA
Experimental: (§1) The 16 day mouse embryo cDNA expression library was diluted 1:1000 in SM solution (100 mM NaCl, 8 mM MgSOv4, 50 mM Tris HCl pH 7.5, 0.01% gelatin). To a sterile test tube, 2 μl of diluted mouse embryo library, 100 μl of 10 mM CaCl2, 100 μl of 10 mM MgCl2 and 100 μl of BL21(DE3)pLysE bacterial cells (grown overnight) were added and incubated for 30 minutes at 37° C. The contents of the tube were mixed with 3 ml of 0.6% top agarose, containing […] chloramphenicol, and poured onto a 2xYT plate (90 mm diameter). For a large primary screen, 10–20 plates were prepared with 3×10^4 pfu per plate. After 6 hours incubation at 37° C., a nitrocellulose filter soaked in 10 mM isopropyl-β-D-thiogalactopyranoside (IPTG) was overlaid on each plate and incubated 3–6 hours at 37° C. Before the filters were removed from the plates, they were marked asymmetrically with India ink in a 18 gauge syringe needle. The plates were stored at 4° C. until ready for the secondary screen. The filters were washed with PBS (137 mM NaCl, 2.7 mM KCl, 4.3 mM Na2HPO4, 1.4 mM KH2PO4)-0.05% Triton X-100 three times at room temperature, 15 minutes each wash, and then placed in a plastic bag containing non-specific blocking solution (PBS-2% BSA) for one hour. In the meantime, 1 ml of 1 mM biotinylated peptide in PBS-0.1% Tween 20 was added to 20 ml of 1 mg/ml streptavidin-alkaline phosphatase (SA-AP) in PBS-0.1% Tween 20 and incubated at 4° C. for 30 minutes. […] Excess biotin-binding sites would then be blocked by addition of 500 pmol biotin. […] Ten μl of 0.1 mM biotin would then be added, and the solution incubated for an additional 15 min.
(§2) To determine the ligand preferences of the novel WW omain-containing clones described in Sections 6.1 and 6.1.1, as well as addressing the issue of whether peptides containing PPPPY (SEQ ID NO:3)-like motifs derived from a variety of proteins could also serve as recognition units and bind to these clones, a cross affinity mapping experiment was performed (FIGS. 15A–D). The peptides shown in FIGS. 15A–D were synthesized, biotinylated, complexed with streptavidin-alkaline phosphatase, and tested in an ELISA based assay for their ability to bind to the twelve individual novel WW domains of WWP1, WWP2, WWP3 and WWP4 which were expressed as GST fusion proteins. The ELISA based cross-affinity experiments were performed essentially as described by Sparks et al. (1996, Proc. Natl. Acad. Sci. 93:1540–1544) with the following modifications. Briefly, microtiter wells were coated with 1–5 μg of fusion protein in 100 mM NaHCO3, blocked with SuperBlock TBS (Pierce) and washed four times with PBS, 0.05% Tween 20. Specific peptide-streptavidin/alkaline phosphatase complexes were added as above and unbound complexes washed five times with PBS, 0.05% Tween 20. Following addition of PNP substrate (p-nitrophenyl phosphate, Kirkegard & Perry Labs), peptide binding was quantitated after 30 min. at O.D. 405 nm. Relative binding measurements from three independent determinations were assigned to a scale as follows: O.D. units 0–0.5=(−), 0.5–1.0=(+), 1.0–2.0=(++), 2.0–3.0=(+++), >3.0=(++++). Peptide binding to human Fyn and Lyn SH3 and SH2 domains was assessed by a filter binding assay (see Section 6.1 and Sparks et al., 1996, Proc. Natl. Acad. Sci 93:1540–1544). Peptide sequences used in cross-affinity experiments correspond to segments of the following genes: RasGap (Database accession # P20936), AP-2 (P05549), p53BP-2 (U09582), IL-6Rα (P22272), voltage-gated chloride channel CLCN5 (X91906), IL-2Rγ (D111086), RSV (D10652), HTLV-1 (D13784), β-dystroglycan (L19711), Formin (X53599), amiloride-sensitive epithelial Na^+ channel ENaCα (P37089), ENaCβ (X87159) and ENaCγ (X87160), muscarinic acetylcholine receptor M4 AChR (P08173), and c-Abl (P00522). Src and Crk SH3 binding peptide sequences were derived from a phage display random peptide library screen (Section 6.1 and Sparks et al., 1996, Proc. Natl. Acad. Sci. 93:1540–1544).

[2] = test system: WW domains of WWP2 expressed as GST fusion proteins; test: ELISA based cross affinity mapping, WW domains of WWP2; type: binding, human; conditions: biotinylated peptide-streptavidin/alkaline phosphatase complex; GST fusion proteins; ELISA
Experimental: as §1, §2

| Substance | binding to WW domains of WWP1 [1] | binding to WW domains of WWP2 [2] |
| --- | --- | --- |
| Biotin-SGSGYVQPPPPPYPGPM [WBP-2A] | specifically bind | specifically bind |
| Biotin-SGSGPGTPPPPYTVGPGY [WBP-1] | specifically bind | specifically bind |
| Biotin-SGSGPGTPYPPPPEFY [WBP-2B] | none of the WW domains of these proteins specifically bind | none of the WW domains of these proteins specifically bind |
